Results from patent publication US20230033285A1, “Protease Inhibitors for Treatment of Coronavirus Infections” (The Scripps Research Institute, priority 2021, published 2023).

System: SARS-CoV-2
Test: microbe, parasite or virus in culture
Format: cell-based
Settings: Severe acute respiratory syndrome coronavirus 2, HeLa-ACE2, 24 h, read-out: EC50, μM (Hela)

With `CC(C)C[C@H](NC(=O)OCc1cccc(Cl)c1)C(=O)N[C@@H](C[C@@H]1CCNC1=O)C(=O)COC(=O)Cc1ccccc1` [Compound 121, (S)-3-((S)-2-((((3-chlorobenzyl)oxy)carbonyl)amino)-4-methylpentanamido)-2-oxo-4-((S)-2-oxopyrrolidin-3-yl)butyl 2-phenylacetate] as the compound, how does the EC50 read?
Its EC50 is over 1 µM.

Same assay, conditions: Severe acute respiratory syndrome coronavirus 2; HeLa-ACE2 cells infected with SARS-CoV-2, 24 h, immunofluorescence of infected cells; read-out: EC50, μM (Hela)

For `Cc1ccccc1NC(=O)C(=O)N[C@@H](CC(C)C)C(=O)N[C@H](C=O)C[C@@H]1CCNC1=O` [Compound 38, N^1-((S)-4-methyl-1-oxo-1-(((S)-1-oxo-3-((S)-2-oxopyrrolidin-3-yl)propan-2-yl)amino)pentan-2-yl)-N^2-(o-tolyl)oxalamide], which EC50 is on record?
Its EC50 is 0.05 to 0.2 µM.

`Cc1cccc(C)c1NC(=O)C(=O)N[C@@H](CC(C)C)C(=O)NC(C[C@@H]1CCNC1=O)C(=O)CO` (stereo partly drawn) [Compound 13, N^1-(2,6-dimethylphenyl)-N^2-((2S)-1-((4-hydroxy-3-oxo-1-((S)-2-oxopyrrolidin-3-yl)butan-2-yl)amino)-4-methyl-1-oxopentan-2-yl)oxalamide] was tested. Which EC50 did it give?
The EC50 was 0.2 to 0.5 µM.

For `CC(C)(C)C[C@H](NC(=O)C(=O)Nc1ccc(OC(F)(F)F)cc1)C(=O)N[C@@H](C[C@@H]1CCCNC1=O)C(=O)CO` [Compound 101, N^1-((S)-1-(((S)-4-hydroxy-3-oxo-1-((S)-2-oxopiperidin-3-yl)butan-2-yl)amino)-4,4-dimethyl-1-oxopentan-2-yl)-N^2-(4-(trifluoromethoxy)phenyl)oxalamide], which EC50 is on record?
Its EC50 is 0.05 to 0.2 µM.

Which EC50 does the source give for `CCc1cccc(CC)c1NC(=O)C(=O)N[C@@H](CC(C)C)C(=O)N[C@@H](C[C@@H]1CCNC1=O)C(=O)CO` [Compound 17, N^1-(2,6-diethylphenyl)-N^2-((S)-1-(((S)-4-hydroxy-3-oxo-1-((S)-2-oxopyrrolidin-3-yl)butan-2-yl)amino)-4-methyl-1-oxopentan-2-yl)oxalamide] here?
Its EC50 is under 0.05 µM.

Which EC50 does the source give for `CC(C)C[C@H](NC(=O)C(=O)NC1CCCCC1)C(=O)N[C@H](C=O)C[C@@H]1CCNC1=O` [Compound 42, N^1-cyclohexyl-N^2-((S)-4-methyl-1-oxo-1-(((S)-1-oxo-3-((S)-2-oxopyrrolidin-3-yl)propan-2-yl)amino)pentan-2-yl)oxalamide] here?
The EC50 was 0.5 to 1 µM.

`CC(=O)NC(CC(C)C(F)(F)F)C(=O)N1C[C@H]2[C@@H]([C@H]1C(=O)N[C@H](C#N)C[C@@H]1CCCNC1=O)C2(C)C` (stereo partly drawn) [Compound 131, (1R,2S,5S)-3-(2-acetamido-5,5,5-trifluoro-4-methylpentanoyl)-N-((S)-1-cyano-2-((S)-2-oxopiperidin-3-yl)ethyl)-6,6-dimethyl-3-azabicyclo[3.1.0]hexane-2-carboxamide] was tested. Which EC50 did it give?
Its EC50 is 0.5 to 1 µM.

`CC(C)C[C@@H](O)C(=O)N[C@@H](Cc1cccc(F)c1)C(=O)N[C@@H](C[C@@H]1CCCNC1=O)C(=O)CO` [Compound 134, (R)-N-((S)-3-(3-fluorophenyl)-1-(((S)-4-hydroxy-3-oxo-1-((S)-2-oxopiperidin-3-yl)butan-2-yl)amino)-1-oxopropan-2-yl)-2-hydroxy-4-methylpentanamide] was tested. Which EC50 did it give?
Its EC50 is over 1 µM.

`Cc1ccccc1NC(=O)C(=O)N1C[C@@H]2CCC[C@@H]2[C@H]1C(=O)N[C@@H](C[C@@H]1CCCNC1=O)C(=O)CO` [Compound 91, (1S,3aR,6aS)-N-((S)-4-hydroxy-3-oxo-1-((S)-2-oxopiperidin-3-yl)butan-2-yl)-2-(2-oxo-2-(o-tolylamino)acetyl)octahydrocyclopenta [c]pyrrole-1-carboxamide] was tested. Which EC50 did it give?
Its EC50 is 0.05 to 0.2 µM.

Which EC50 does the source give for `CC1(C[C@H](NC(=O)C(=O)NC23CC(F)(C2)C3)C(=O)N[C@@H](C[C@@H]2CCNC2=O)C(=O)CO)CCC1` [Compound 97, N^1-(3-fluorobicyclo[1.1.1]pentan-1-yl)-N^2-((S)-1-(((S)-4-hydroxy-3-oxo-1-((S)-2-oxopyrrolidin-3-yl)butan-2-yl)amino)-3-(1-methylcyclobutyl)-1-oxopropan-2-yl)oxalamide] here?
The EC50 was 0.05 to 0.2 µM.

With `CC(C)C[C@H](NC(=O)Nc1ccccc1F)C(=O)N[C@@H](C[C@@H]1CCNC1=O)C(=O)CO` [Compound 10, (S)-2-(3-(2-fluorophenyl)ureido)-N-((S)-4-hydroxy-3-oxo-1-((S)-2-oxopyrrolidin-3-yl)butan-2-yl)-4-methylpentanamide] as the compound, how does the EC50 read?
The EC50 was over 1 µM.

How did the EC50 turn out when `CC(C)(C)C[C@H](NC(=O)C(=O)Nc1ccccc1OC(F)(F)F)C(=O)N[C@@H](CC1CCCNC1=O)C(=O)CO` (stereo partly shown) [Compound 98] was run?
The EC50 was under 0.05 µM.

With `CC(C)C[C@H](NC(=O)C(=O)NC1(C)CC1)C(=O)N[C@@H](C[C@@H]1CCCNC1=O)C(=O)CO` [Compound 29, N^1-((S)-1-(((S)-4-hydroxy-3-oxo-1-((S)-2-oxopiperidin-3-yl)butan-2-yl)amino)-4-methyl-1-oxopentan-2-yl)-N^2-(1-methylcyclopropyl)oxalamide] as the compound, how does the EC50 read?
The EC50 was over 1 µM.

How did the EC50 turn out when `CC(C)(C)C[C@H](NC(=O)C(=O)Nc1cccc(Cl)c1)C(=O)N[C@@H](CC1CCCNC1=O)C(=O)CO` (stereo partly drawn) [Compound 102, N^1-(3-chlorophenyl)-N^2-((S)-1-(((S)-4-hydroxy-3-oxo-1-((S)-2-oxopiperidin-3-yl)butan-2-yl)amino)-4,4-dimethyl-l-oxopentan-2-yl)oxalamide] was run?
The EC50 was under 0.05 µM.

How did the EC50 turn out when `O=C(Nc1ccccc1F)C(=O)N[C@@H](CC1CCCCC1)C(=O)N[C@@H](C[C@@H]1CCCNC1=O)C(=O)CO` [Compound 24, N^1-((S)-3-cyclohexyl-1-(((S)-4-hydroxy-3-oxo-1-((S)-2-oxopiperidin-3-yl)butan-2-yl)amino)-1-oxopropan-2-yl)-N^2-(2-fluorophenyl)oxalamide] was run?
Its EC50 is 0.05 to 0.2 µM.

How did the EC50 turn out when `Cc1ccccc1NC(=O)C(=O)N[C@@H](Cc1ccccc1F)C(=O)N[C@@H](C[C@@H]1CCNC1=O)C(=O)CO` [Compound 20, N^1-((S)-3-(2-fluorophenyl)-1-(((S)-4-hydroxy-3-oxo-1-((S)-2-oxopyrrolidin-3-yl)butan-2-yl)amino)-1-oxopropan-2-yl)-N^2-(o-tolyl)oxalamide] was run?
The EC50 was over 1 µM.

`COc1cccc2[nH]c(C(=O)N[C@@H](CC(C)C)C(=O)N[C@H](C=O)C[C@@H]3CCNC3=O)cc12` [Compound 35, 4-methoxy-N-((S)-4-methyl-1-oxo-1-(((S)-1-oxo-3-((S)-2-oxopyrrolidin-3-yl)propan-2-yl)amino)pentan-2-yl)-1H-indole-2-carboxamide] was tested. Which EC50 did it give?
The EC50 was over 1 µM.

With `Cc1cccc(C)c1NC(=O)C(=O)N[C@@H](CC(C)C)C(=O)N[C@@H](C[C@@H]1CCNC1=O)C(=O)COC(=O)C(=O)c1ccccc1` [Compound 11, (S)-3-((S)-2-(2-((2,6-dimethylphenyl)amino)-2-oxoacetamido)-4-methylpentanamido)-2-oxo-4-((S)-2-oxopyrrolidin-3-yl)butyl 2-oxo-2-phenylacetate] as the compound, how does the EC50 read?
The EC50 was 0.05 to 0.2 µM.

With `CC(C)C[C@H](NC(=O)c1cc(-c2ccccn2)on1)C(=O)N[C@H](C=O)C[C@@H]1CCCNC1=O` [Compound 127, N-((S)-4-methyl-1-oxo-1-(((S)-1-oxo-3-((S)-2-oxopiperidin-3-yl)propan-2-yl)amino)pentan-2-yl)-5-(pyridin-2-yl)isoxazole-3-carboxamide] as the compound, how does the EC50 read?
The EC50 was 0.5 to 1 µM.

With `O=C[C@H](C[C@@H]1CCCNC1=O)NC(=O)[C@@H]1[C@H]2CCC[C@H]2CN1C(=O)COc1ccc(Cl)cc1Cl` [Compound 45, (1S,3aR,6aS)-2-(2-(2,4-dichlorophenoxy)acetyl)-N-((S)-1-oxo-3-((S)-2-oxopiperidin-3-yl)propan-2-yl)octahydrocyclopenta[c]pyrrole-1-carboxamide] as the compound, how does the EC50 read?
The EC50 was 0.05 to 0.2 µM.

With `CCCCCCC(=O)OCC(=O)[C@H](C[C@@H]1CCNC1=O)NC(=O)[C@H](CC1CCCCC1)NC(=O)C(=O)NC1CCCCC1` [Compound 19, (S)-3-((S)-3-cyclohexyl-2-(2-(cyclohexylamino)-2-oxoacetamido)propanamido)-2-oxo-4-((S)-2-oxopyrrolidin-3-yl)butyl heptanoate] as the compound, how does the EC50 read?
The EC50 was 0.2 to 0.5 µM.

For `CC(C)(C)C[C@H](NC(=O)C(=O)NC12CC(F)(C1)C2)C(=O)N[C@@H](C[C@@H]1CCCNC1=O)C(=O)CO` [Compound 94, N^1-(3-fluorobicyclo[1.1.1]pentan-1-yl)-N^2-((S)-1-(((S)-4-hydroxy-3-oxo-1-((S)-2-oxopiperidin-3-yl)butan-2-yl)amino)-4,4-dimethyl-1-oxopentan-2-yl)oxalamide], which EC50 is on record?
Its EC50 is 0.05 to 0.2 µM.

Which EC50 does the source give for `CC(C)(C)C[C@H](NC(=O)C(=O)NC12CC(F)(C1)C2)C(=O)N[C@@H](C[C@@H]1CCNC1=O)C(=O)CO` [Compound 22, N^1-(3-fluorobicyclo[1.1.1]pentan-1-yl)-N^2-((S)-1-(((S)-4-hydroxy-3-oxo-1-((S)-2-oxopyrrolidin-3-yl)butan-2-yl)amino)-4,4-dimethyl-1-oxopentan-2-yl)oxalamide] here?
The EC50 was 0.2 to 0.5 µM.

For `O=C[C@H](C[C@@H]1CCNC1=O)NC(=O)[C@@H]1[C@H]2CCC[C@H]2CN1C(=O)C(=O)Nc1ccccc1F` [Compound 44, (1S,3aR,6aS)-2-(2-((2-fluorophenyl)amino)-2-oxoacetyl)-N-((S)-1-oxo-3-((S)-2-oxopyrrolidin-3-yl)propan-2-yl)octahydrocyclopenta[c]pyrrole-1-carboxamide], which EC50 is on record?
Its EC50 is over 1 µM.

For `CC(C)C[C@H](NC(=O)C(=O)Nc1ccccc1F)C(=O)N[C@H](C#N)C[C@@H]1CCNC1=O` [Compound 58], which EC50 is on record?
The EC50 was 0.5 to 1 µM.

With `O=C(Nc1ccccc1F)C(=O)N[C@@H](CC1CCCCC1)C(=O)N[C@H](C[C@@H]1CCCNC1=O)C(=O)CO` [Compound 25, N^1-((S)-3-cyclohexyl-1-(((R)-4-hydroxy-3-oxo-1-((S)-2-oxopiperidin-3-yl)butan-2-yl)amino)-1-oxopropan-2-yl)-N^2-(2-fluorophenyl)oxalamide] as the compound, how does the EC50 read?
Its EC50 is 0.05 to 0.2 µM.

`CC(C)CCC(=O)N[C@@H](CC(C)(C)C)C(=O)N[C@H](C#N)C[C@@H]1CCCNC1=O` [Compound 136, (S)-N-((S)-1-cyano-2-((S)-2-oxopiperidin-3-yl)ethyl)-4,4-dimethyl-2-(4-methylpentanamido)pentanamide] was tested. Which EC50 did it give?
The EC50 was over 1 µM.

How did the EC50 turn out when `CC1(C[C@H](NC(=O)C(=O)NC(C)(C)C)C(=O)N[C@@H](C[C@@H]2CCCNC2=O)C(=O)CO)CCC1` [Compound 113, N^1-(tert-butyl)-N^2-((S)-1-(((S)-4-hydroxy-3-oxo-1-((S)-2-oxopiperidin-3-yl)butan-2-yl)amino)-3-(1-methylcyclobutyl)-1-oxopropan-2-yl)oxalamide] was run?
Its EC50 is 0.05 to 0.2 µM.
